Measured values: patent publication US7825126B2 (The United States of America as represented by the …, priority 2004, dated 2010)
Where two headings read alike, the source gives them in different places.

Legend:
[1] = target: T1, human A2B adenosine receptor (hA2BAR) (Homo sapiens, UniProt P29275); conditions: data from literature (footnotes c, f, h); cited from earlier work
T1 sequence (P29275 1-332): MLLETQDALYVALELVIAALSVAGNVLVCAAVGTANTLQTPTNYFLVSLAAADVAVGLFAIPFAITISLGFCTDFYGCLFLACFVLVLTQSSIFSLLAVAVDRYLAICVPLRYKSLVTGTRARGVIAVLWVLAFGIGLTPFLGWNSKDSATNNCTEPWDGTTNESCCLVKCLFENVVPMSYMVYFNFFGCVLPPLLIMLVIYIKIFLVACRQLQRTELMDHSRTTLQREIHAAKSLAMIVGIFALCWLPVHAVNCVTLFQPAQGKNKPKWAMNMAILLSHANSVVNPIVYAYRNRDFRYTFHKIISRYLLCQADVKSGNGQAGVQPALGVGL

human A1 receptors [2] = target: T2, human A1 receptors (Homo sapiens, UniProt P30542)
T2 construct: expressed in transfected cells
T2 sequence (P30542 1-326): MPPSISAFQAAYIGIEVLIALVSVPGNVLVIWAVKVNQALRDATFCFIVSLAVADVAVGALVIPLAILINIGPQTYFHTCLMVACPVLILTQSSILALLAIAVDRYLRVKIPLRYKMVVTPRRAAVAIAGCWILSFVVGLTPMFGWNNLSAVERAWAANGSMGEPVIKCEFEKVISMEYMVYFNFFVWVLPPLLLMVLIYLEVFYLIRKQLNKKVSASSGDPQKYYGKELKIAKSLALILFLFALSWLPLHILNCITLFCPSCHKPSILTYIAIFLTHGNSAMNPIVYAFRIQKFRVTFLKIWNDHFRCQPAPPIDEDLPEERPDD

[3] = target: T3, rat A3 adenosine receptor (Rattus norvegicus, UniProt P28647)
T3 construct: expressed in transfected cells; host or cells: CHO cells
T3 sequence (P28647 1-320): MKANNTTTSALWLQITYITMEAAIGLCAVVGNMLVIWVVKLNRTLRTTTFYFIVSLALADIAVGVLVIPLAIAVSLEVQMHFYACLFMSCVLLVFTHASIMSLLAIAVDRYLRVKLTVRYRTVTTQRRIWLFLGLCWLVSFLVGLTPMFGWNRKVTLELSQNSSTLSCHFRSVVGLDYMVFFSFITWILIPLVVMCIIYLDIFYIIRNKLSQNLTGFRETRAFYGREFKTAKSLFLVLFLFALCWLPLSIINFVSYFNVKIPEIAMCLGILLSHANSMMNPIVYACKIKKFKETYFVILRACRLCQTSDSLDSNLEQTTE

[4] = target: T4, human A3 adenosine receptor (Homo sapiens, UniProt P0DMS8); set-up: expressed in transfected cells; host or cells: CHO cells; conditions: relative to 10 μM Cl-IB-MECA, data from literature (footnotes c, d, e, f); cited from earlier work
T4 sequence (P0DMS8 1-318): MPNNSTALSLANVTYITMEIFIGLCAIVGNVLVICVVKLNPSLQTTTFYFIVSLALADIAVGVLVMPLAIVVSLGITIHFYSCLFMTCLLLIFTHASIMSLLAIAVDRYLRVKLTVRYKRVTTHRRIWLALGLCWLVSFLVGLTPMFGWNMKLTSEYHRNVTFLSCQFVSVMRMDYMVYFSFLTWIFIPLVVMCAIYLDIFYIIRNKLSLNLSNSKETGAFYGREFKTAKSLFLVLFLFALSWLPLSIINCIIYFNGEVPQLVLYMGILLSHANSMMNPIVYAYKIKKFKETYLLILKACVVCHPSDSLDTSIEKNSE

[5] = target: T3, rat A3 adenosine receptor; assay: Binding at rat A3 adenosine receptor ([125I]I-AB-MECA, CHO cell membranes); conditions: rat A3 AR in CHO cells; unit nM printed in b194 only; read-out: Ki(rA3AR)
Procedure: (§1) Striatal and forebrain tissues from Wistar rats were homogenized in ice-cold 50 mM Tris-HCl buffer, pH 7.4, using an electric homogenizer. The homogenate was centrifuged at 20,000 g for 10 min at 4° C., and the pellet was washed in fresh buffer. The final pellet was stored at −80° C. until the binding experiments. The protein concentration was measured using the Bradford assay. […] The mixtures were incubated at 37° C. for 60 min. […] Filters were washed three times with 9 ml ice-cold buffer. Radioactivity was determined in a Beckman 5500B γ-counter. Statistical analysis Binding and functional parameters were calculated using Prism 5.0 software (GraphPAD, San Diego, Calif., USA). IC50 values obtained from competition curves were converted to Ki values using the Cheng-Prusoff equation.

[6] = target: T4, human A3 adenosine receptor; set-up: expressed in transfected cells; host or cells: CHO cells; conditions: data from literature (footnotes c, d, e, f); read-out: Ki(hA3AR); cited from earlier work
human A2A receptors [7] = target: T5, human A2A receptors (Homo sapiens, UniProt P29274)
T5 construct: expressed in transfected cells

human A2A receptors [8] = target: T5, human A2A receptors; assay: Binding at human A2A adenosine receptor ([3H]CGS21680, HEK-293 cell membranes); conditions: [3H]CGS 21680; for Ki: mean ± s.e.m., n = 3-5, read-out: Ki(hA2AAR)
Procedure: (§2) Binding assays at the A1 and A2A receptors. […] Reaction was terminated by filtration with GF/B filters.
(§3) Statistical analysis Binding and functional parameters were calculated using Prism 5.0 software (GraphPAD, San Diego, Calif., USA). IC50 values obtained from competition curves were converted to Ki values using the Cheng-Prusoff equation.

[9] = target: T4, human A3 adenosine receptor; assay: Cyclic AMP accumulation assay (inhibition of forskolin-stimulated cAMP), CHO cells expressing human A3 adenosine receptor; conditions: for % Activation (hA3AR) at 10 μM: relative to 10 μM Cl-IB-MECA
Procedure: (§4) The cyclic AMP accumulation assay was performed as follows. Intracellular cyclic AMP levels were measured with a competitive protein binding method. […] After centrifugation and resuspension in medium, cells were plated in 24-well plates in 1.0 ml medium. […] The reaction was terminated by removing the supernatant, and cells were lysed upon the addition of 200 μL of 0.1 M ice-cold HCl. The cell lysate was resuspended and stored at −20° C. For determination of cyclic AMP production, protein kinase A (PKA) was incubated with [^3H]cyclic AMP (2 nM) in K2HPO4/EDTA buffer (K2HPO4, 150 mM; EDTA, 10 mM), 20 μL of the cell lysate, and 30 μL 0.1 M HCl or 50 μL of cyclic AMP solution (0-16 pmol/200 μL for standard curve). Bound radioactivity was separated by rapid filtration through Whatman GF/C filters and washed once with cold buffer. Bound radioactivity was measured by liquid scintillation spectrometry.
(§5) Forskolin (10 μM) was used to stimulate cyclic AMP levels.

human A1 receptors [10] = target: T2, human A1 receptors; assay: Binding at human A1 adenosine receptor ([3H]R-PIA, CHO cell membranes); conditions: mean ± s.e.m., n = 3-5, read-out: Ki(hA1AR)
Procedure: as §2, §3

[11] = target: T4, human A3 adenosine receptor
Procedure: as §4, §5

[12] = target: T4, human A3 adenosine receptor; assay: Binding at human A3 adenosine receptor ([125I]I-AB-MECA, CHO cell membranes); set-up: expressed in transfected cells; host or cells: CHO cells; conditions: for Ki: [125I]I-AB-MECA, mean ± s.e.m., n = 3-5, read-out: Ki(hA3AR); for Selectivity for the human A3 adenosine receptor in comparison to the A1 adenosine receptor: ratio of Ki hA1 / hA3
Procedure: as §1

[13] = target: T1, human A2B adenosine receptor (hA2BAR); assay: Activation of human A2B adenosine receptor at 10 μM; assay type: cell-based; conditions: CHO cells
[14] = data from literature (footnotes c, d, f, g); read-out: Ki(hA1AR); cited from earlier work
[15] = rat A3 AR; data from literature (footnotes c, d, f, i); unit nM printed in b194 only; read-out: Ki(rA3AR); cited from earlier work
[16] = read-out: Ki(hA1AR); data from literature (footnotes c, d, f, g); cited from earlier work
[17] = 10 μM; data from Ohno et al. (footnote c); cited from earlier work
[18] = read-out: Ki(hA2AAR); data from literature (footnotes c, d, f, g); cited from earlier work

T5 sequence (P29274 whole entry): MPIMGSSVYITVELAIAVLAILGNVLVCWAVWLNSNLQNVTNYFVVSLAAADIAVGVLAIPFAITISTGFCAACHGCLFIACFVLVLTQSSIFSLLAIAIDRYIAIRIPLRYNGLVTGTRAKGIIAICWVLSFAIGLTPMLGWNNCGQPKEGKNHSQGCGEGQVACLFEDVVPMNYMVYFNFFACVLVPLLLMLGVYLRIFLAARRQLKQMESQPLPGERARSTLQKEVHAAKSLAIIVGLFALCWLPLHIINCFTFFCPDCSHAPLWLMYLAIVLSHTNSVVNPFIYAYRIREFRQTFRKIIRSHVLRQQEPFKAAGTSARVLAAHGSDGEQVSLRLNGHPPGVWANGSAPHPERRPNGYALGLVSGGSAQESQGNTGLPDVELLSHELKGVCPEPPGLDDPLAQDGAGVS

Compound | % Activation (hA2BAR) at 10 μM [1] [%] | Ki [3, 15] [nM] | % Activation (hA3AR) at 10 μM [4] | Ki [5] [nM] | Ki (human A1 receptors [10]) [nM] | % Activation (hA2BAR) at 10 μM [13] [%] | further results
OCC1OC(n2cnc3c(NCc4cccc(I)c4)ncnc32)C(O)C1O (centres unmarked) [Compound 1a] | 58 | 9.5 ± 1.4 | 46 ± 8% |  |  |  | Ki (human A1 receptors [2]; [14]): 7.4 ± 1.7 nM
OCC1OC(n2cnc3c(NCc4cccc(I)c4)nc(Cl)nc32)C(O)C1O (centres unmarked) [Compound 1b] | 16 |  | 0% |  |  |  | Ki (human A1 receptors [2]; [16]): 17 ± 2 nM; Ki ([3]; read-out: Ki(rA3AR); rat A3 AR; data from literature (footnotes c, d, f, i); unit nM printed in b194 only; cited from earlier work): 2.7 ± 1.2 nM
CNC(=O)[C@@]12C[C@@H]1[C@@H](n1cnc3c(NCc4cccc(I)c4)nc(Cl)nc31)[C@H](O)[C@@H]2O [Compound 5, (1′S,2′R,3′S,4′R,5′S)-[4′-(2-chloro-6-{[(3-iodophenyl)methyl]amino}purin-9-yl)-2′,3′-dihydroxybicyclo[3.1.0]hexyl]-N-methylcarboxamide] |  |  | 100^e % | 1.1 ± 0.1 |  |  | 
CNc1ncnc2c1ncn2C1OC(CO)C(O)C1O (centres unmarked) [Compound 6] | 16 | 6400 ± 1600 |  |  |  |  | Ki (human A1 receptors [2]; [16]): 6000 ± 2000 nM; Ki [6]: 9.3 ± 0.4 nM; % displ. at 10 μM (hA2AAR) (human A2A receptors [7]; [17]): 17%
CNc1nc(N)nc2c1ncn2C1OC(CO)C(O)C1O (centres unmarked) [Compound 7] | 11 | > 10000 | 98 ± 3% |  |  |  | Ki (human A1 receptors [2]; [16]): 480 ± 20 nM; Ki [6]: 39 ± 2 nM; % displ. at 10 μM (hA2AAR) (human A2A receptors [7]; [17]): 15%
OCC1OC(n2cnc3c(NC4CC4c4ccccc4)ncnc32)C(O)C1O (centres unmarked) [Compound 10] | 26 | 400 ± 30 | 101 ± 5% |  |  |  | Ki (human A2A receptors [7]; data from literature (footnotes c, d, f, g); read-out: Ki(hA2AAR); cited from earlier work): 2500 ± 700 nM
Cc1ccccc1CNc1ncnc2c1ncn2C1OC(CO)C(O)C1O (centres unmarked) [Compound 11] |  | 38 ± 15 | 100 ± 3% |  |  |  | Ki (human A1 receptors [2]; [16]): 39 ± 8 nM; Ki [6]: 47 ± 11 nM; Ki (human A2A receptors [7]; [18]): 760 ± 110 nM
OCC1OC(n2cnc3c(NCc4cccnc4)ncnc32)C(O)C1O (centres unmarked) [Compound 12] |  | 290 ± 70 | 100 ± 6% |  |  |  | Ki (human A1 receptors [2]; [14]): 42 ± 4 nM; Ki [6]: 4.5 ± 1.1 nM; Ki (human A2A receptors [7]; [18]): 2300 ± 120 nM
OCC1OC(n2cnc3c(NCC(c4ccccc4)c4ccccc4)ncnc32)C(O)C1O (centres unmarked) [Compound 13] | 70 | 540 ± 200 | 0% |  |  |  | 
CNC(=O)[C@@]12C[C@@H]1[C@@H](n1cnc3c(NC)nc(Cl)nc31)[C@H](O)[C@@H]2O [Compound 14] |  |  |  | 160 ± 30 | 2100 ± 1700 |  | % displ. at 10 μM (hA2AAR) (human A2A receptors [8]): 6%; % Activation (hA3AR) at 10 μM [9]: 104 ± 7%
CNC(=O)C12CC1C(n1cnc3c(NCc4cccc(Br)c4)nc(Cl)nc31)C(O)C2O (stereo not drawn) [Compound 17, (1′S,2′R,3′S,4′S,5′S)-4′-[6-(3-Bromobenzylamino)-2-chloro-purin-9-yl]-2′,3′-dihydroxy-bicyclo[3.1.0]hexane-1′-carboxylic acid methyl amide] |  |  |  | 0.76 ± 0.08 | 270 ± 70 | 38 | % Activation (hA3AR) at 10 μM [11]: 100 ± 11%; Ki (human A2A receptors [8]): 1300 ± 100 nM; Ki [12]: 0.38 nM
CNC(=O)[C@@]12C[C@@H]1[C@H](n1cnc3c(NCc4cccc(Cl)c4)nc(Cl)nc31)[C@H](O)[C@@H]2O [Compound 18, (1′S,2′R,3′S,4′S,5′S)-4′-[6-(3-Chlorobenzylamino)-2-chloro-purin-9-yl]-2′,3′-dihydroxy-bicyclo[3.1.0]hexane-1′-carboxylic acid methylamide] |  |  |  | 1 ± 0.1 | 260 ± 60 | 38 | Ki (human A2A receptors [8]): 2300 ± 100 nM
CNC(=O)C12CC1C(n1cnc3c(NCc4cc(Cl)ccc4OCc4ccccc4)nc(Cl)nc31)C(O)C2O (stereo not drawn) [Compound 24, (1′S,2′R,3′S,4′S,5′S)-4′-[6-(5-Chloro-2-benzyloxy-benzylamino)-2-chloro-purin-9-yl]-2′,3′-dihydroxy-bicyclo[3.1.0]hexane-1′-carboxylic acid methylamide] |  |  |  | 11 ± 3 | 1200 ± 200 | 49 | Ki (human A2A receptors [8]): 850 ± 160 nM; % Activation (hA3AR) at 10 μM [9]: 110 ± 10%; Ki [12]: 5.2 ± 1.3 nM
CNC(=O)C12CC1C(n1cnc3c(NCc4cc(OC)ccc4OC)nc(Cl)nc31)C(O)C2O (stereo not drawn) [Compound 26, (1′S,2′R,3′S,4′S,5′S)-4′-[6-(2,5-Dimethoxy-benzylamino)-2-chloro-purin-9-yl]-2′,3′-dihydroxy-bicyclo[3.1.0]hexane-1′-carboxylic acid methylamide] |  |  |  | 0.87 ± 0.24 | 1600 ± 200 | 0 | % displ. at 10 μM (hA2AAR) (human A2A receptors [8]): 52%; % Activation (hA3AR) at 10 μM [9]: 107 ± 10%; Ki [12]: 1.4 ± 0.2 nM; Selectivity for the human A3 adenosine receptor in comparison to the A1 adenosine receptor [12]: 1200 fold
CNC(=O)[C@@]12C[C@@H]1[C@@H](n1cnc3c(NCC(c4ccccc4)c4ccccc4)nc(Cl)nc31)[C@H](O)[C@@H]2O [Compound 34] |  |  |  | 10 ± 4 | 1300 ± 100 | 46 | % Activation (hA3AR) at 10 μM [11]: 107 ± 9%; Ki (human A2A receptors [8]): 1600 ± 100 nM; agonist efficacy at the A3 adenosine receptor (inhibition of forskolin-stimulated adenylate cyclase) ([9]; concentration of 10 μM): agonist; affinity at the human A3 adenosine receptor (in words) ([12]; 2-chloro, 5′-N-methylamide substituted compounds): subnanomolar; Ki [12]: 0.69 ± 0.02 nM; Selectivity for the human A3 adenosine receptor in comparison to the A1 adenosine receptor [12]: 1900 fold
